Experimental data from PMC10794144, “A novel antibiotic class targeting the lipopolysaccharide transporter” (Nature, 2024).
Converted amounts (≈) assume the structure as drawn. Like-named read-outs stand apart in the source and are kept apart here.

Columns and labels:
GSK-3A = target: T1, GSK-3A (Homo sapiens, UniProt P49840); assay: Off-target screening (CEREP); assay type: biochemical; conditions: read-out: percent inhibition
T1 construct: purchased Eurofins CEREP SA
Procedure: (§1) Supplementary Table 1 │ Off-target activity screening f or MCP compou nds […]
(§2) The assays given in the table above were conducted at Eurofins CEREP S A (Celle-Lévescault, France) and were run as single point measurements in duplicates in the presence of 10 µ M of the test compound and reported as percent inhibition of the radioligand signal or control enzymatic activity. n.d., not

Phosphodiesterase 3B = target: T2, Phosphodiesterase 3B (Homo sapiens, UniProt Q13370); assay: Off-target screening (CEREP); assay type: biochemical; conditions: read-out: percent inhibition
T2 construct: purchased Eurofins CEREP SA
Procedure: as §1, §2

ZAP70 kinase = target: T3, ZAP70 kinase (Homo sapiens, UniProt P43403); assay: Off-target screening (CEREP); assay type: biochemical; conditions: read-out: percent inhibition
T3 construct: purchased Eurofins CEREP SA
T3 sequence (P43403 1-619): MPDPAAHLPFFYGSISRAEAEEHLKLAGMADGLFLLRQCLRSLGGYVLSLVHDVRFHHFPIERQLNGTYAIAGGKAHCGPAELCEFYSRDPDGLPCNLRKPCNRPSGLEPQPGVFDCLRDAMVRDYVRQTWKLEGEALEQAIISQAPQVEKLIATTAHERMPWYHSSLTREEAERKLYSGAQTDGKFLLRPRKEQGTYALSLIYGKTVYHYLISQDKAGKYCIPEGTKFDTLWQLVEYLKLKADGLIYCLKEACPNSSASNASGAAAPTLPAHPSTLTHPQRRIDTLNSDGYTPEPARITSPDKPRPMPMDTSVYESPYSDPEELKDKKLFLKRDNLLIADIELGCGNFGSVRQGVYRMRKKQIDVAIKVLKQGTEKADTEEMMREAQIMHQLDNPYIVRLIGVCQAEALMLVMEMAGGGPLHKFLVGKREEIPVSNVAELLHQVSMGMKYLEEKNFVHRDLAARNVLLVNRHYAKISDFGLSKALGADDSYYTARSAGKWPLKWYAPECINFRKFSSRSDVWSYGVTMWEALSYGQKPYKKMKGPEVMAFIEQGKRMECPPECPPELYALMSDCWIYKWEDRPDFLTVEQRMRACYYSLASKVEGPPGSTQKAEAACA
Procedure: as §1, §2

P. aeruginosa ATCC 27853 = assay: microbe, parasite or virus in culture; conditions: for MIC: Pseudomonas aeruginosa
Procedure: (§3) MIC determinations were performed using the broth microdilution method and in line with CLSI guidelines M07 and M100 (refs. [37],[38]). Bacterial inocula were prepared by diluting a 0.5 McFarland suspension in CAMHB or lysogeny broth (LB) specifically for A. baylyi isolates. […] MIC values of all of the tested antibiotics were read as the lowest compound concentration inhibiting bacterial growth by naked eye or beyond which the OD600 ceased to decrease.

E. coli ATCC 25922 = assay: microbe, parasite or virus in culture
Procedure: as §3

hERG = hERG (Homo sapiens, UniProt Q12809); assay: hERG
[1] = CAMHB, mode of at least three replicates (RO7036668 one replicate)

hERG, sequence (Q12809 whole entry): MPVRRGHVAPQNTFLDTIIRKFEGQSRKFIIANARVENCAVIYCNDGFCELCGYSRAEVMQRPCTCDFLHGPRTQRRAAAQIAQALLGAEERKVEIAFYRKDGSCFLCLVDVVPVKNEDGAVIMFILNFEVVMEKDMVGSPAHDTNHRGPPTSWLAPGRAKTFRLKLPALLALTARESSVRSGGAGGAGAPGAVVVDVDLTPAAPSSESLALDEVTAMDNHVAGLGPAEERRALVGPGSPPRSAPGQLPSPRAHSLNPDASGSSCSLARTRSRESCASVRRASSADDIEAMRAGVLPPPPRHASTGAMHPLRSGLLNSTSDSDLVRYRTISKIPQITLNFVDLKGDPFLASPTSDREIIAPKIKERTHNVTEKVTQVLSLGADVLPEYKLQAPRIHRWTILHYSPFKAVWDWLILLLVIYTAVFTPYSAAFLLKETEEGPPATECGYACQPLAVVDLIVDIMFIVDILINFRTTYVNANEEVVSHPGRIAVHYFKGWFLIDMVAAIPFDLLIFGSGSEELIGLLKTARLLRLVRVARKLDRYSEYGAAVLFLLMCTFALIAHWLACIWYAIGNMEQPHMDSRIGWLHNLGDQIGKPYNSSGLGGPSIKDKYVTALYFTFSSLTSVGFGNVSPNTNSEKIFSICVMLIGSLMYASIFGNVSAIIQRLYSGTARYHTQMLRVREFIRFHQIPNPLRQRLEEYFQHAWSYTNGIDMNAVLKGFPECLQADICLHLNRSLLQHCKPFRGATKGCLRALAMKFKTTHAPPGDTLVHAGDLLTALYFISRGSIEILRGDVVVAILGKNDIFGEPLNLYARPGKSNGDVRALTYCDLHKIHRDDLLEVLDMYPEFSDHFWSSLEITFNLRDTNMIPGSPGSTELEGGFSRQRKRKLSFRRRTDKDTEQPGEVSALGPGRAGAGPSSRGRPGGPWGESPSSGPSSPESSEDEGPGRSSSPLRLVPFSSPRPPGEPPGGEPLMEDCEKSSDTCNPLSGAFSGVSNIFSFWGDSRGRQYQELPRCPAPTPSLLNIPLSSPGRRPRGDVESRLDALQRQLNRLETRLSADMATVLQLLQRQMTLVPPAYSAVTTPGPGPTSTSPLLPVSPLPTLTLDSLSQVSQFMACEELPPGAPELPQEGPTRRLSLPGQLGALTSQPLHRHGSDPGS
T1 sequence (P49840 whole entry): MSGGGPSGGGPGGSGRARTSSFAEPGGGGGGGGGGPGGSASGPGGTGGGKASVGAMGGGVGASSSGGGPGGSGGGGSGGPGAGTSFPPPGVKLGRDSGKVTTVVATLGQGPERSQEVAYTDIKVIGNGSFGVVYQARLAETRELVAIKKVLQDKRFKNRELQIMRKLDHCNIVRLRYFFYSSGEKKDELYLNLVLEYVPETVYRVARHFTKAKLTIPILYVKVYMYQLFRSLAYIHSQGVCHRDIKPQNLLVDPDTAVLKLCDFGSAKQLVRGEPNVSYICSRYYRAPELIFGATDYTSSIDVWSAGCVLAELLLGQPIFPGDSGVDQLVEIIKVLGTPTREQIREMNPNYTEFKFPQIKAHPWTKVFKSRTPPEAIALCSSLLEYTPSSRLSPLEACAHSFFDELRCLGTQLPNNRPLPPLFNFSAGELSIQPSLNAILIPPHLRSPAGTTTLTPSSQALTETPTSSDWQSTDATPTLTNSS
T2 sequence (Q13370 whole entry): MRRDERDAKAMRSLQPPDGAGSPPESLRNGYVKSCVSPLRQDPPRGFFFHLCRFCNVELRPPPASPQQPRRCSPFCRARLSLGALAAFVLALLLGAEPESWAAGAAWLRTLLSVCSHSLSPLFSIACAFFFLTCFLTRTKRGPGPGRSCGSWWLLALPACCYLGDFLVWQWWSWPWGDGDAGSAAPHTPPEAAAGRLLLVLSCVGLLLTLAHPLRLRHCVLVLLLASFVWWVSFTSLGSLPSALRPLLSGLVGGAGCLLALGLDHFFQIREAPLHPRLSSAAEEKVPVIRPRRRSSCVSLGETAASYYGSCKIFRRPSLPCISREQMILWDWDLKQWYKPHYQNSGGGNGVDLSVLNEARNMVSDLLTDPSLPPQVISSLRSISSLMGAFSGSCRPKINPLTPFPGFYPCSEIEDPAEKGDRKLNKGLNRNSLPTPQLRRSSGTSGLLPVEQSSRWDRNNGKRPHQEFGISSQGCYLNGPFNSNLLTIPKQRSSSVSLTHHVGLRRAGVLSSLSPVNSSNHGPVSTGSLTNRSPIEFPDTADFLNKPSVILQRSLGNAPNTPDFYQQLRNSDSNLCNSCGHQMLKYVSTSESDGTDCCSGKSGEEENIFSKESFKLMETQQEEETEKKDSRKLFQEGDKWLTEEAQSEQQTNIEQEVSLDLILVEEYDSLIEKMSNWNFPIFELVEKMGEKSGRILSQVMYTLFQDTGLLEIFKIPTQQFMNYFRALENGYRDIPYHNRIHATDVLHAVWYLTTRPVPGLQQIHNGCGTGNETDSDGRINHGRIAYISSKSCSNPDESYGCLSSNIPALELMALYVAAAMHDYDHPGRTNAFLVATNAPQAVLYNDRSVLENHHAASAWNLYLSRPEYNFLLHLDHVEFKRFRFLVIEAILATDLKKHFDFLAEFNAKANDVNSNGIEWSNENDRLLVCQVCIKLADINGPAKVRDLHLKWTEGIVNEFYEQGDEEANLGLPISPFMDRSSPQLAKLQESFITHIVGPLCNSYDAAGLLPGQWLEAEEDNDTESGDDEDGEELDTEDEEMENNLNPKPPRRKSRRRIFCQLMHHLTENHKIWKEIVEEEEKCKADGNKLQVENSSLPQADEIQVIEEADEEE

CN1C(=O)[C@H](CCCN)NC(=O)[C@H](CCCN)NCc2ccccc2Sc2ccccc2CNC(=O)[C@@H]1Cc1c[nH]c2ccccc12 [RO7036668]
inhibition at 10 µM (GSK-3A; 10 µM, duplicates): -12%
inhibition at 10 µM (Phosphodiesterase 3B; 10 µM, duplicates): 17%
inhibition at 10 µM (ZAP70 kinase; 10 µM, duplicates): 2%
MIC (P. aeruginosa ATCC 27853; ATCC27853, CAMHB, mode of at least three replicates (RO7036668 one replicate)): > 64 µg/mL
MIC (E. coli ATCC 25922; [1]): >64 µg/mL
MIC (E. coli ATCC 25922; Escherichia coli, ATCC25922): > 64 µg/mL

CN1C(=O)[C@H](CCCCN)NC(=O)[C@H](CCCN)NCc2cccnc2Sc2c(Cl)ccc(Cl)c2CNC(=O)[C@@H]1Cc1c[nH]c2ccccc12 [RO7075573]
inhibition at 10 µM (GSK-3A): -1%
inhibition at 10 µM (Phosphodiesterase 3B): -3%
inhibition at 10 µM (ZAP70 kinase): -47%
IC50 (hERG): > 10 µM
hERG IC20 (hERG): 4 µM
MIC (P. aeruginosa ATCC 27853; ATCC27853): > 64 µg/mL
MIC 100% (P. aeruginosa ATCC 27853; Study LGC281440): 64 µg/mL (≈ 86.5 µM)
MIC 100% (P. aeruginosa ATCC 27853; Study LGC282160): >64 µg/mL
MIC 100% (P. aeruginosa ATCC 27853; Study LGC284879): >64 µg/mL
MIC 100% (P. aeruginosa ATCC 27853; Study LGC285582): >64 µg/mL
MIC 100% (P. aeruginosa ATCC 27853; Study LGC286210): 64 µg/mL (≈ 86.5 µM)
MIC 100% (P. aeruginosa ATCC 27853; Study LGC293598): >64 µg/mL
MIC 100% (P. aeruginosa ATCC 27853; Study LGC294355): >64 µg/mL
MIC 100% (P. aeruginosa ATCC 27853; Study LGC295147): 64 µg/mL (≈ 86.5 µM)
MIC 100% (P. aeruginosa ATCC 27853; Study LGC296813): 64 µg/mL (≈ 86.5 µM)
MIC 100% (P. aeruginosa ATCC 27853; Study LGC299544): >64 µg/mL
MIC 100% (P. aeruginosa ATCC 27853; Study LGC301026): >64 µg/mL
MIC 100% (P. aeruginosa ATCC 27853; Study LGC308175): >64 µg/mL
MIC 100% (P. aeruginosa ATCC 27853; Study ROC010): >64 µg/mL
MIC 100% (P. aeruginosa ATCC 27853; Study ROC012): >64 µg/mL
MIC (E. coli ATCC 25922; [1]): >64 µg/mL
MIC (E. coli ATCC 25922; Escherichia coli, ATCC25922): > 64 µg/mL
MIC 100% (E. coli ATCC 25922; Study LGC281440): >64 µg/mL
MIC 100% (E. coli ATCC 25922; Study LGC282160): >64 µg/mL
MIC 100% (E. coli ATCC 25922; Study LGC284879): >64 µg/mL
MIC 100% (E. coli ATCC 25922; Study LGC285582): >64 µg/mL
MIC 100% (E. coli ATCC 25922; Study LGC286210): >64 µg/mL
MIC 100% (E. coli ATCC 25922; Study LGC293598): >64 µg/mL
MIC 100% (E. coli ATCC 25922; Study LGC294355): >64 µg/mL
MIC 100% (E. coli ATCC 25922; Study LGC295147): >64 µg/mL
MIC 100% (E. coli ATCC 25922; Study LGC296813): >64 µg/mL
MIC 100% (E. coli ATCC 25922; Study LGC299544): >64 µg/mL
MIC 100% (E. coli ATCC 25922; Study LGC301026): >64 µg/mL
MIC 100% (E. coli ATCC 25922; Study LGC308175): >64 µg/mL
MIC 100% (E. coli ATCC 25922; Study ROC010): >64 µg/mL
MIC 100% (E. coli ATCC 25922; Study ROC012): >64 µg/mL
